Columns and labels:
[1] = target: T1, AR protein (Homo sapiens, UniProt P10275); assay: AR protein degradation in VCaP cells (Western blot); type: cell-based; conditions: 8h
T1 construct: host or cells: VCaP
T1 sequence (P10275 1-920): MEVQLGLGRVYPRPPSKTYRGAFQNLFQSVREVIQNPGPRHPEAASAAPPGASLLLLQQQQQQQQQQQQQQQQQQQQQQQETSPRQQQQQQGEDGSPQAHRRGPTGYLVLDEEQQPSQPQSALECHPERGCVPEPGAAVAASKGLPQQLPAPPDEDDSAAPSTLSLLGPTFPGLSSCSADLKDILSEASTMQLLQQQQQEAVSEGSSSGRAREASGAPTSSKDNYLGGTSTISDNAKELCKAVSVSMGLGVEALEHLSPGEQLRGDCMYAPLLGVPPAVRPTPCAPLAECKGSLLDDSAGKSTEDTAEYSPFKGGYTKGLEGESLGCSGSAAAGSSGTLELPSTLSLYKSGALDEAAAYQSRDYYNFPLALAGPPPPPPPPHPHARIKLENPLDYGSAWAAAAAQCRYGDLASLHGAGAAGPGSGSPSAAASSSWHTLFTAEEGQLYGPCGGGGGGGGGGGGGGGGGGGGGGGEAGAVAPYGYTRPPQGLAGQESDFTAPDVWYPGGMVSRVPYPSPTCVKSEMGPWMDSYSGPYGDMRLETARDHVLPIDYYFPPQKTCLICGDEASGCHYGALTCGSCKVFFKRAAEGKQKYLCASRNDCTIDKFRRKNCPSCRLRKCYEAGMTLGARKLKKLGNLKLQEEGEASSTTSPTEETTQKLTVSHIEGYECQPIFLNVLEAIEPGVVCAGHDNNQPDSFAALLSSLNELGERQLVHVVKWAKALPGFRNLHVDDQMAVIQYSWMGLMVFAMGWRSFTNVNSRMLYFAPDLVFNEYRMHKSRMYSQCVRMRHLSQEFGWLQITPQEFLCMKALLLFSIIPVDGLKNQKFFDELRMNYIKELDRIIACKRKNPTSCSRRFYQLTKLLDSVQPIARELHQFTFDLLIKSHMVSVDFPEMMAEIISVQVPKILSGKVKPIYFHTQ
In short: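 AR-positive VCaP human prostate cancer cells grown in DMEM with 10% FBS were plated in six-well plates at 3×10^5 cells/well and incubated overnight. Compounds were then added at 1 µL/well alongside a solvent control and incubated for 8h. Lysates in RIPA buffer with protease inhibitor were quantified by BCA and run by SDS-PAGE. AR was detected by Western blot, and degradation was calculated from band grayscale normalized to GAPDH.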

[2] = test system: VCaP cells; assay: Inhibition of VCaP cell proliferation (WST-8); type: cell-based; conditions: 168 hours
In short: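 VCaP cells seeded at 15,000/well in DMEM + 10% FBS, treated next day with nine 5-fold dilutions from 10 µM (final) at 37°C, 5% CO2. Viability read by WST-8 absorbance at 450 nm on day 9.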

Compound | IC50 ([2]; Homo sapiens) | Degradation rate of AR protein in VCaP cells ([1]; 0.5 nM) | Degradation rate of AR protein in VCaP cells ([1]; 5 nM) | AR protein degradation rate at fixed concentration (%) at 0.0005 µM ([1]; 0.5 nM) | AR protein degradation rate at fixed concentration (%) at 0.005 µM ([1]; 5 nM) | IC50 [2]
COc1cc(O[C@H]2C(C)(C)[C@H](NC(=O)c3ccc(N4CCC(N5CCC6(CC5)COc5c6ccc6c5n(C)c(=O)n6C5CCC(=O)NC5=O)CC4)cc3)C2(C)C)ccc1C#N (stereo partly drawn) [A-P-29] | 0.019 µM | – | – | 70% | 68% | –
(R)-3-((1-(4-(((S)-2-(3-chloro-4-cyanophenyl)-3-methyl-2,8-diazaspiro[4.5]decan-8-yl)phenyl)piperidin-4-yl)methyl)-N-(((S)-2,6-dioxopiperidin-3-yl)-1,2,3,4,4a,5-hexahydrobenzo[b]pyrazi no[1,2-d][1,4]oxazine-8-carboxamide [A-P-58] | – | 12% | 37% | – | – | 1.83 µM
COc1cc(O[C@H]2C(C)(C)[C@H](NC(=O)c3ccc(N4CCC(CN5CCC6(CCc7cc(C(=O)N[C@H]8CCC(=O)NC8=O)c(F)cc7O6)CC5)(OC)CC4)cc3)C2(C)C)ccc1C#N [A-P-36] | 1.66 µM | 9% | 45% | – | – | –
COc1cc(O[C@H]2C(C)(C)[C@H](NC(=O)c3ccc(N4CCC(C)(CN5CCC6(CCc7cc(C(=O)N[C@H]8CCC(=O)NC8=O)c(F)cc7O6)CC5)CC4)cn3)C2(C)C)ccc1C#N [A-P-43, 1'-((1-(6-(((1r,3r)-3-(4-cyano-3-methoxyphenoxy)-2,2,4,4-tetramethylcyclobutyl)carbamoyl)pyridin-3-yl)-4-methylpiperidin-4-yl)methyl)-N-((S)-2,6-dioxopiperidin-3-yl)-7-fluorospiro[chroman-2,4'-piperidin]-6-carboxamide] | 1.55 µM | 33% | 32% | – | – | –

Now from value to compound, other results behind:

IC50 ([2]; Homo sapiens) | Degradation rate of AR protein in VCaP cells ([1]; 0.5 nM) | Degradation rate of AR protein in VCaP cells ([1]; 5 nM) | Compound | AR protein degradation rate at fixed concentration (%) at 0.0005 µM ([1]; 0.5 nM) | AR protein degradation rate at fixed concentration (%) at 0.005 µM ([1]; 5 nM) | IC50 [2]
4.7 µM | -20% | 21% | COc1cc(O[C@H]2C(C)(C)[C@H](NC(=O)c3ccc(N4CCC(CN5CCN6c7ccc(N[C@H]8CCC(=O)NC8=O)cc7OC[C@@H]6C5)CC4)cc3)C2(C)C)ccc1C#N [A-P-100] | – | – | –
0.051 µM | 84% | 87% | CC1(C)[C@H](NC(=O)c2ccc(N3CCC(CN4CCC5(CCc6cc(C(=O)N[C@H]7CCC(=O)NC7=O)c(F)cc6O5)CC4)CC3)nc2)C(C)(C)[C@H]1Oc1ccc(C#N)c(Cl)c1 [A-P-50, 1'-((1-(5-(((1R,3R)-3-(3-chloro-4-cyanophenoxy)-2,2,4,4-tetramethylcyclobutyl)carbamoyl)pyridin-2-yl)piperidin-4-yl)methyl)-N-((S)-2,6-dioxopiperidin-3-yl)-7-fluorospiro[chroman-2,4'-piperidin]-6-carboxamide] | – | – | –
4.24 µM | -1% | 14% | COc1cc(O[C@H]2C(C)(C)[C@H](NC(=O)c3ccc(N4CCC(F)(CN5CCC6(CCc7cc(C(=O)N[C@H]8CCC(=O)NC8=O)c(F)cc7O6)CC5)CC4)cc3)C2(C)C)ccc1C#N [A-P-52, 1'-((1-(4-(((1r,3r)-3-(4-cyano-3-methoxyphenoxy)-2,2,4,4-tetramethylcyclobutyl)carbamoyl)phenyl)-4-fluoropiperidin-4-yl)methyl)-N-((S)-2,6-dioxopiperidin-3-yl)-7-fluorospiro[chroman-2,4'-piperidin]-6-carboxamide] | – | – | –
0.33 µM | -23% | -1% | COc1cc(O[C@H]2C(C)(C)[C@H](NC(=O)c3ccc(N4CCC(C)(CN5CCC6(CCc7cc(C(=O)N[C@H]8CCC(=O)NC8=O)c(F)cc7O6)CC5)CC4)nn3)C2(C)C)ccc1C#N [A-P-48, 1'-((1-(6-(((1R,3R)-3-(4-cyano-3-methoxyphenoxy)-2,2,4,4-tetramethylcyclobutyl)carbamoyl)pyridazin-3-yl)-4-methylpiperidin-4-yl)methyl)-N-((S)-2,6-dioxopiperidin-3-yl)-7-fluorospiro[chroman-2,4'-piperidin]-6-carboxamide] | – | – | –

— patent EP4722219A1 (Gan & Lee Pharmaceuticals Co., Ltd., priority 2023, dated 2024)
